Assay results reported in PubChem BioAssay AID330 (DTP/NCI, 2004).
Values joined by “and” are separate entries in the source; they are usually repeats but may differ in a detail not shown here. Equal values may be shown once. Toxic doses and inconclusive results are not listed.

Test system: P388 leukemia ip, CD2F1 mice, survival T/C
Experiment: NCI In Vivo Anticancer Drug Screen. Data for tumor model P388 Leukemia (intraperitoneal) in CD2F1 (CDF1) mice
Conditions: endpoint: median survival time, higher = longer survival
Method in brief: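 Mice carrying the transplanted tumor received test compound or vehicle. Survival was recorded in each group, and the value is the treated-group measurement divided by that of the vehicle-treated control group.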

[1] = dose: 25.0 mg/kg/injection, schedule: Q01DX009 (ip), vehicle: saline
[2] = dose: 50.0 mg/kg/injection, schedule: Q01DX009 (ip), vehicle: saline
[3] = dose: 100.0 mg/kg/injection, schedule: Q01DX009 (ip), vehicle: saline
[4] = dose: 50.0 mg/kg/injection, schedule: Q01DX005 (ip), vehicle: Klucel (hydroxypropylcellulose) (HPC)
[5] = dose: 100.0 mg/kg/injection, schedule: Q01DX005 (ip), vehicle: Klucel (hydroxypropylcellulose) (HPC)
[6] = dose: 200.0 mg/kg/injection, schedule: Q01DX005 (ip), vehicle: Klucel (hydroxypropylcellulose) (HPC)
[7] = dose: 12.5 mg/kg/injection, schedule: Q01DX009 (ip), vehicle: saline
[8] = dose: 200.0 mg/kg/injection, schedule: Q01DX009 (ip), vehicle: saline
[9] = dose: 50.0 mg/kg/injection, schedule: Q01DX005 (ip), vehicle: saline with Tween-80
[10] = dose: 100.0 mg/kg/injection, schedule: Q01DX005 (ip), vehicle: saline with Tween-80

With COc1cc(C2=N/C(=C\c3ccccc3O)C(=O)O2)cc(OC)c1OC the T/C [1] was 94 % of control, the T/C [2] was 94 % of control and the T/C [3] was 91 % of control.

For CC(=O)Oc1ccc(OC(C)=O)c2c1CC=CC2, the T/C [4] was 105 % of control, the T/C [5] was 105 % of control and the T/C [6] was 100 % of control.

For CC(=O)OC1C(O)C(C)OC(OC2C(OC(=O)C3CCC4C(C3)OC3(CC(OC(=O)/C=C/c5ccccc5)C(C)CO3)C43CO3)OC(CO)C(O)C2OC(C)=O)C1O (stereo not given), the T/C (dose: 1.5 mg/kg/injection, schedule: Q01DX009 (ip), vehicle: saline + alcohol) was 106 % of control and the T/C (dose: 3.0 mg/kg/injection, schedule: Q01DX009 (ip), vehicle: saline + alcohol) was 106 % of control and 116 % of control.

In the case of Nc1nc(=O)n(C2CCCCO2)cc1I (stereo not given), the T/C [4] is reported as 105 % of control, the T/C [5] is reported as 102 % of control and the T/C [6] is reported as 111 % of control.

COc1ccc(C(C)(C)c2cc3c(cc2OCCO)OCO3)cc1 was tested, and the T/C (dose: 60.0 mg/kg/injection, schedule: Q01DX005 (ip), vehicle: saline with Tween-80) was 96 % of control, the T/C (dose: 120.0 mg/kg/injection, schedule: Q01DX005 (ip), vehicle: saline with Tween-80) was 101 % of control and the T/C (dose: 240.0 mg/kg/injection, schedule: Q01DX005 (ip), vehicle: saline with Tween-80) was 105 % of control.

O=C(NCc1ccncc1)Nc1ccc(Cc2ccc(NC(=O)NCc3ccncc3)cc2)cc1 was tested, and the T/C (dose: 50.0 mg/kg/injection, schedule: Q01DX009 (ip), vehicle: Klucel (hydroxypropylcellulose) (HPC)) was 105 % of control, the T/C (dose: 100.0 mg/kg/injection, schedule: Q01DX009 (ip), vehicle: Klucel (hydroxypropylcellulose) (HPC)) was 102 % of control and the T/C (dose: 200.0 mg/kg/injection, schedule: Q01DX009 (ip), vehicle: Klucel (hydroxypropylcellulose) (HPC)) was 103 % of control.

With Cc1ccc2c(Nc3ccc(NS(C)(=O)=O)cc3C)c3ccccc3nc2c1 the T/C [7] was 150 % of control and 161 % of control, the T/C (dose: 12.5 mg/kg/injection, schedule: Q04DX003 (ip), vehicle: saline) was 98 % of control and the T/C [1] was 156 % of control and 157 % of control. The T/C (dose: 25.0 mg/kg/injection, schedule: Q04DX003 (ip), vehicle: saline) was 96 % of control, the T/C (dose: 50.0 mg/kg/injection, schedule: Q04DX003 (ip), vehicle: saline) was 97 % of control and the T/C (dose: 100.0 mg/kg/injection, schedule: Q04DX003 (ip), vehicle: saline) was 95 % of control.

For CCCCCCCC(=O)Nc1nnc(SCCCCCCSc2nnc(NC(=O)CCCCCCC)s2)s1, the T/C (dose: 50.0 mg/kg/injection, schedule: Q01DX005 (ip), vehicle: Klucel + Tween-80) was 90 % of control, the T/C (dose: 100.0 mg/kg/injection, schedule: Q01DX005 (ip), vehicle: Klucel + Tween-80) was 90 % of control and the T/C (dose: 200.0 mg/kg/injection, schedule: Q01DX005 (ip), vehicle: Klucel + Tween-80) was 95 % of control.

CC(CC(=O)c1cccc([N+](=O)[O-])c1)=NCC(C)N=C(C)CC(=O)c1cccc([N+](=O)[O-])c1 (stereo not given) was tested, and the T/C (dose: 100.0 mg/kg/injection, schedule: Q04DX003 (ip), vehicle: saline with Tween-80) was 98 % of control, the T/C (dose: 200.0 mg/kg/injection, schedule: Q04DX003 (ip), vehicle: saline with Tween-80) was 101 % of control and the T/C (dose: 400.0 mg/kg/injection, schedule: Q04DX003 (ip), vehicle: saline with Tween-80) was 106 % of control.

With COc1ccc(OC)c(CC=C(C)C)c1 the T/C (dose: 15.25 mg/kg/injection, schedule: Q01DX009 (ip), vehicle: Klucel (hydroxypropylcellulose) (HPC)) was 100 % of control, the T/C (dose: 30.5 mg/kg/injection, schedule: Q01DX009 (ip), vehicle: Klucel (hydroxypropylcellulose) (HPC)) was 97 % of control and the T/C (dose: 61.0 mg/kg/injection, schedule: Q01DX009 (ip), vehicle: Klucel (hydroxypropylcellulose) (HPC)) was 107 % of control. The T/C (dose: 122.0 mg/kg/injection, schedule: Q01DX009 (ip), vehicle: Klucel (hydroxypropylcellulose) (HPC)) was 100 % of control.

With FC(F)(F)c1cccc(C2CNCCO2)c1 (stereo not given) the T/C [7] was 100 % of control, the T/C [1] was 105 % of control and the T/C [2] was 100 % of control.

O=C1c2cc(I)cc(I)c2NC(O)c2cccn21 (stereo not given) was tested, and the T/C (dose: 0.1 mg/kg/injection, schedule: Q01DX005 (ip), vehicle: water) was 102 % of control, the T/C (dose: 0.2 mg/kg/injection, schedule: Q01DX005 (ip), vehicle: water) was 98 % of control and the T/C (dose: 0.4 mg/kg/injection, schedule: Q01DX005 (ip), vehicle: water) was 102 % of control. The T/C (dose: 0.8 mg/kg/injection, schedule: Q01DX005 (ip), vehicle: water) was 98 % of control, the T/C (dose: 1.6 mg/kg/injection, schedule: Q01DX005 (ip), vehicle: water) was 99 % of control and the T/C (dose: 5.0 mg/kg/injection, schedule: Q01DX005 (ip), vehicle: distilled water + Tween-80) was 94 % of control. For the same compound, the T/C (dose: 10.0 mg/kg/injection, schedule: Q01DX005 (ip), vehicle: distilled water + Tween-80) was 95 % of control, the T/C (dose: 20.0 mg/kg/injection, schedule: Q01DX005 (ip), vehicle: distilled water + Tween-80) was 102 % of control and the T/C (dose: 40.0 mg/kg/injection, schedule: Q01DX005 (ip), vehicle: distilled water + Tween-80) was 102 % of control. For the same compound, the T/C (dose: 80.0 mg/kg/injection, schedule: Q01DX005 (ip), vehicle: distilled water + Tween-80) was 98 % of control.

For CCc1cn[nH]c(=O)c1, the T/C [2] was 110 % of control, the T/C [3] was 96 % of control and the T/C [8] was 104 % of control.

In the case of OC(c1cc(F)c(F)c(F)c1F)(C(F)(F)F)C(F)(F)F, the T/C (dose: 100.0 mg/kg/injection, schedule: Q04DX003 (ip), vehicle: suspension in saline) is reported as 98 % of control, the T/C (dose: 200.0 mg/kg/injection, schedule: Q04DX003 (ip), vehicle: suspension in saline) is reported as 104 % of control and the T/C (dose: 400.0 mg/kg/injection, schedule: Q04DX003 (ip), vehicle: suspension in saline) is reported as 101 % of control.

CN(C)P1(=O)OCC(C(C)(C)C)CN1c1ccccc1 (stereo not given) was tested, and the T/C (dose: 100.0 mg/kg/injection, schedule: Q04DX003 (ip), vehicle: Klucel (hydroxypropylcellulose) (HPC)) was 97 % of control and the T/C (dose: 200.0 mg/kg/injection, schedule: Q04DX003 (ip), vehicle: Klucel (hydroxypropylcellulose) (HPC)) was 97 % of control.

In the case of c1ccc([P+](CC[P+](c2ccccc2)(c2ccccc2)c2ccccc2)(c2ccccc2)c2ccccc2)cc1, the T/C (dose: 0.78 mg/kg/injection, schedule: Q01DX009 (ip), vehicle: saline) is reported as 105 % of control and the T/C (dose: 1.56 mg/kg/injection, schedule: Q01DX009 (ip), vehicle: saline) is reported as 103 % of control.

With NS(=O)(=O)c1cc(Cl)cc(Cl)c1O the T/C (dose: 50.0 mg/kg/injection, schedule: Q01DX009 (ip), vehicle: saline with Tween-80) was 100 % of control and the T/C (dose: 100.0 mg/kg/injection, schedule: Q01DX009 (ip), vehicle: saline with Tween-80) was 120 % of control.

For CN(C)C1C2(C)CCC(C2)C1(C)C (stereo not given), the T/C [9] was 103 % of control and the T/C [10] was 102 % of control.

With Cn1nnnc1-c1cccc(F)c1 the T/C (dose: 50.0 mg/kg/injection, schedule: Q01DX001 (ip), vehicle: Klucel (hydroxypropylcellulose) (HPC)) was 101 % of control, the T/C (dose: 100.0 mg/kg/injection, schedule: Q01DX001 (ip), vehicle: Klucel (hydroxypropylcellulose) (HPC)) was 102 % of control and the T/C (dose: 200.0 mg/kg/injection, schedule: Q01DX001 (ip), vehicle: Klucel (hydroxypropylcellulose) (HPC)) was 104 % of control.

Cc1cccc([B-]23OCC[N+]2(CNC(=O)C2=C(O)C4(O)C(=O)C5=C(O)c6c(O)cccc6C(C)(O)C5CC4C(N(C)C)C2=O)CCO3)c1 (stereo not given) was tested, and the T/C [4] was 97 % of control, the T/C [5] was 111 % of control and the T/C [6] was 118 % of control.

In the case of COc1cccc2c1C(=O)c1c(O)c3c(c(O)c1C2=O)CC(O)(/C=N/NS(=O)(=O)c1ccc(C)cc1)CC3OC1CC(N)C(O)C(C)O1 (stereo not given), the T/C (dose: 6.25 mg/kg/injection, schedule: Q01DX009 (ip), vehicle: other) is reported as 153 % of control, the T/C (dose: 12.5 mg/kg/injection, schedule: Q01DX009 (ip), vehicle: other) is reported as 178 % of control and the T/C (dose: 25.0 mg/kg/injection, schedule: Q01DX009 (ip), vehicle: other) is reported as 93 % of control.

O=S(=O)(O)CC[S][Sn]([S]CCS(=O)(=O)O)([c]1ccccc1)[c]1ccccc1 (tested in a mixture with another compound) was tested, and the T/C (dose: 1.87 mg/kg/injection, schedule: Q01DX005 (ip), vehicle: Klucel (hydroxypropylcellulose) (HPC)) was 121 % of control and the T/C (dose: 3.75 mg/kg/injection, schedule: Q01DX005 (ip), vehicle: Klucel (hydroxypropylcellulose) (HPC)) was 152 % of control.

S=C(Nc1ccccc1)SCc1ccc(Cl)cc1 was tested, and the T/C [2] was 104 % of control, the T/C [3] was 103 % of control and the T/C [8] was 108 % of control.

In the case of COc1ccc2nc(CC(C)C)c3c(c2c1)-c1ccccc1C3=O, the T/C [4] is reported as 91 % of control, the T/C [5] is reported as 87 % of control and the T/C [6] is reported as 89 % of control.

For C1=[N+]2N=C(SCc3ccccc3)S[B-]2([C+]2CCCCC2)Oc2ccccc21 (stereo not given), the T/C [9] was 91 % of control, the T/C [10] was 94 % of control and the T/C (dose: 200.0 mg/kg/injection, schedule: Q01DX005 (ip), vehicle: saline with Tween-80) was 91 % of control.
